From ChEMBL document CHEMBL1201861, “Genomics of Drug Sensitity in Cancer screening data, Wellcome Trust Sanger Institute”

Key:
Test in all cases: cells
Details in all cases: Homo sapiens
[1] = test system: COR-L88; type: functional, cell-based;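 note: growth inhibition of COR-L88 cells, read out with a cell viability assay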
[2] = test system: CP66-MEL; type: functional, cell-based;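 note: growth inhibition of CP66-MEL cells determined in a cell viability assay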
[3] = test system: CW-2; type: functional, cell-based;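 note: growth inhibition of CW-2 cells, read out by a cell viability assay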
[4] = test system: Calu-6; type: functional, cell-based;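 note: growth of human Calu-6 cells, read out by a cell viability assay, IC50 marking inhibition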
[5] = test system: D283 Med; type: functional, cell-based
[6] = test system: D-502MG; type: functional, cell-based
[7] = test system: DB; type: functional, cell-based
[8] = test system: DEL; type: functional, cell-based;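 note: growth inhibition of the human DEL cell line, read out with a cell viability assay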
[9] = test system: DOHH-2; type: functional, cell-based;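 note: growth inhibition of human DOHH-2 cells, read out with a cell viability assay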
[10] = test system: ES3; type: functional, cell-based;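 note: growth inhibition of ES3 cells, read out with a cell viability assay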
[11] = test system: ES5; type: functional, cell-based;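 note: growth inhibition of human ES5 cells, read out by a cell viability assay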
[12] = test system: ES8; type: functional, cell-based;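 note: growth inhibition of human ES8 cells, read out with a cell viability assay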
[13] = test system: EW-1; type: functional, cell-based;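 note: growth inhibition of the human EW-1 cell line, read out by a cell viability assay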
[14] = test system: GAK; type: functional, cell-based
[15] = test system: GI-ME-N; type: functional, cell-based;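 note: growth inhibition of human GI-ME-N cells, read out with a cell viability assay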
[16] = test system: GT3TKB; type: functional, cell-based;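 note: growth inhibition of the cell line, read out with a cell viability assay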
[17] = test system: HH; type: functional, cell-based
[18] = test system: HL-60; type: functional, cell-based;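 note: growth inhibition of human HL-60 cells, read out with a cell viability assay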
[19] = test system: HT-144; type: functional, cell-based
[20] = test system: HuTu80; type: functional, cell-based, HUTU-80;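 note: growth inhibition of HuTu80 human cells, determined with a cell viability readout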
[21] = test system: IA-LM; type: functional, cell-based;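 note: cell viability assay measuring growth inhibition of human IA-LM cells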
[22] = test system: IST-MES1; type: functional, cell-based;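 note: growth inhibition of IST-MES1 cells, measured with a cell viability assay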
[23] = test system: J-RT3-T3-5; type: functional, cell-based;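 note: cell viability assay measuring growth inhibition of human J-RT3-T3-5 cells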
[24] = test system: JAR; type: functional, cell-based;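 note: growth inhibition of human JAR cells determined with a cell viability assay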
[25] = test system: JVM-2; type: functional, cell-based;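 note: growth inhibition of JVM-2 cells determined by a cell viability assay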
[26] = test system: K5; type: functional, cell-based
[27] = test system: KALS-1; type: functional, cell-based;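 note: growth inhibition of KALS-1 cells, determined with a cell viability assay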
[28] = test system: KARPAS-299; type: functional, cell-based
[29] = test system: KARPAS-45; type: functional, cell-based;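 note: inhibition of cell line growth, read out through a viability assay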
[30] = test system: KM12; type: functional, cell-based;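 note: KM12 cell growth inhibition, read out with a cell viability assay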
[31] = test system: KMOE-2; type: functional, cell-based;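 note: growth inhibition of human KMOE-2 cells, read out with a cell viability assay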
[32] = test system: L-363; type: functional, cell-based
[33] = test system: LAN-6; type: functional, cell-based;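 note: growth inhibition of LAN-6 cells, determined with a cell viability assay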
[34] = test system: LB2518-MEL; type: functional, cell-based;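 note: growth inhibition of human LB2518-MEL cells, measured with a cell viability assay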
[35] = test system: LC-2-ad; type: functional, cell-based;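 note: growth inhibition of human LC-2-ad cells, read out with a cell viability assay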
[36] = test system: LOX IMVI; type: functional, cell-based
[37] = test system: LU-134-A; type: functional, cell-based
[38] = test system: Lu-65; type: functional, cell-based;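 note: growth inhibition of Lu-65 cancer cells, read out by a cell viability assay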
[39] = test system: MEG-01; type: functional, cell-based;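 note: growth inhibition of MEG-01 cells, read out by a cell viability assay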
[40] = test system: MHH-PREB-1; type: functional, cell-based;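 note: cell viability assay measuring inhibition of proliferation of human MHH-PREB-1 cells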
[41] = test system: MLMA; type: functional, cell-based;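 note: growth inhibition of MLMA cells (human), determined through a cell viability readout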
[42] = test system: MOLT-4; type: functional, cell-based;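 note: growth inhibition of MOLT-4 cells, determined with a cell viability readout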
[43] = test system: MV4-11; type: functional, cell-based, MV-4-11;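 note: cell viability readout measuring growth inhibition of human MV-4-11 cells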
[44] = test system: MZ7-mel; type: functional, cell-based;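 note: growth inhibition of human MZ7-mel cells, measured by a cell viability assay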
[45] = test system: NCI-H1581; type: functional, cell-based;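 note: cell growth inhibition read out by a viability assay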
[46] = test system: NCI-H1770; type: functional, cell-based;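 note: growth inhibition of NCI-H1770 cells determined with a viability readout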
[47] = test system: SNU1; type: functional, cell-based;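 note: growth inhibition of human NCI-SNU-1 cells, measured with a cell viability assay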
[48] = test system: NMC-G1; type: functional, cell-based;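 note: growth inhibition of the NMC-G1 cell line, measured with a cell viability read-out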
[49] = test system: NTERA-2-cl-D1; type: functional, cell-based;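 note: inhibition of cell growth, measured with a cell viability assay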
[50] = test system: OCUB-M; type: functional, cell-based;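 note: growth inhibition of the cancer cell line, read out through a cell viability assay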
[51] = test system: ONS-76; type: functional, cell-based;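 note: growth inhibition of human ONS-76 cells, read out with a cell viability assay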
[52] = test system: OVCAR-4; type: functional, cell-based;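 note: growth inhibition of human OVCAR-4 cells, measured with a cell viability assay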
[53] = test system: QIMR-WIL; type: functional, cell-based;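 note: growth inhibition of QIMR-WIL cells, read out with a cell viability assay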
[54] = test system: RPMI-8866; type: functional, cell-based
[55] = test system: RXF 393; type: functional, cell-based;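 note: growth inhibition of human RXF 393 cells, read out with a cell viability assay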
[56] = test system: SBC-1; type: functional, cell-based;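 note: cell viability assay measuring growth inhibition of the SBC-1 cell line, IC50 being the concentration that halves growth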
[57] = test system: SHP77; type: functional, cell-based, SHP-77
[58] = test system: SK-N-FI; type: functional, cell-based
[59] = test system: SK-PN-DW; type: functional, cell-based
[60] = test system: SW 962; type: functional, cell-based;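 note: growth inhibition of human SW962 cells, read out by a cell viability assay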
[61] = test system: A3-KAW; type: functional, cell-based;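 note: growth inhibition of human A3-KAW cells, read out with a cell viability assay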
[62] = test system: A4-Fuk; type: functional, cell-based
[63] = test system: A704; type: functional, cell-based;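 note: growth inhibition of human A704 cells, read out with a cell viability assay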
[64] = test system: TE-10; type: functional, cell-based;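 note: growth inhibition of TE-10 cells, measured by a cell viability assay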
[65] = test system: TE-11; type: functional, cell-based;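 note: growth inhibition of human TE-11 cells, read out by a cell viability assay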
[66] = test system: UACC-257; type: functional, cell-based

## Cc1nc(Nc2ncc(C(=O)Nc3c(C)cccc3Cl)s2)cc(N2CCN(CCO)CC2)n1 [DASATINIB]
[1]
  IC50: […]
[2]
  IC50: 195 nM
[3]
  IC50: […]
[4]
  IC50: […]
[5]
  IC50: […]
[6]
  IC50: 1230 nM
[7]
  IC50: […]
[8]
  IC50: […]
[9]
  IC50: 17.2 nM
[10]
  IC50: […]
[11]
  IC50: […]
[12]
  IC50: […]
[13]
  IC50: […]
[14]
  IC50: […]
[15]
  IC50: 61.2 nM
[16]
  IC50: […]
[17]
  IC50: […]
[18]
  IC50: […]
[19]
  IC50: 536 nM
[20]
  IC50: 314 nM
[21]
  IC50: […]
[22]
  IC50: 85.5 nM
[23]
  IC50: […]
[24]
  IC50: […]
[25]
  IC50: […]
[26]
  IC50: 165 nM
[27]
  IC50: 94.9 nM
[28]
  IC50: […]
[29]
  IC50: […]
[30]
  IC50: […]
[31]
  IC50: […]
[32]
  IC50: […]
[33]
  IC50: […]
[34]
  IC50: 142 nM
[35]
  IC50: 25.9 nM
[36]
  IC50: 315 nM
[37]
  IC50: […]
[38]
  IC50: […]
[39]
  IC50: < 5 nM
[40]
  IC50: 745 nM
[41]
  IC50: 140 nM
[42]
  IC50: […]
[43]
  IC50: […]
[44]
  IC50: 479 nM
[45]
  IC50: […]
[46]
  IC50: […]
[47]
  IC50: […]
[48]
  IC50: 116 nM
[49]
  IC50: 123 nM
[50]
  IC50: 1040 nM
[51]
  IC50: 430 nM
[52]
  IC50: 374 nM
[53]
  IC50: 706 nM
[54]
  IC50: […]
[55]
  IC50: 23.6 nM
[56]
  IC50: […]
[57]
  IC50: […]
[58]
  IC50: […]
[59]
  IC50: […]
[60]
  IC50: 113 nM
[61]
  IC50: 985 nM
[62]
  IC50: […]
[63]
  IC50: 14.9 nM
[64]
  IC50: 63.6 nM
[65]
  IC50: 78.6 nM
[66]
  IC50: […]

## C[C@]12O[C@H](C[C@]1(O)CO)n1c3ccccc3c3c4c(c5c6ccccc6n2c5c31)CNC4=O [LESTAURTINIB]
[1]
  IC50: > 2000 nM
[2]
  IC50: > 2000 nM
[3]
  IC50: > 2000 nM
[4]
  IC50: > 2000 nM
[5]
  IC50: 132 nM
[6]
  IC50: 411 nM
[7]
  IC50: 802 nM
[8]
  IC50: 47.3 nM
[9]
  IC50: 184 nM
[10]
  IC50: 125 nM
[11]
  IC50: 16.5 nM
[12]
  IC50: 132 nM
[13]
  IC50: 1080 nM
[14]
  IC50: […]
[15]
  IC50: 174 nM
[16]
  IC50: 389 nM
[17]
  IC50: 506 nM
[18]
  IC50: 149 nM
[19]
  IC50: 978 nM
[20]
  IC50: 649 nM
[21]
  IC50: > 2000 nM
[22]
  IC50: > 2000 nM
[23]
  IC50: 365 nM
[24]
  IC50: 9.94 nM
[25]
  IC50: > 2000 nM
[26]
  IC50: 145 nM
[27]
  IC50: 689 nM
[28]
  IC50: > 2000 nM
[29]
  IC50: 52.4 nM
[30]
  IC50: 37.8 nM
[31]
  IC50: 617 nM
[32]
  IC50: 147 nM
[33]
  IC50: > 2000 nM
[34]
  IC50: 405 nM
[35]
  IC50: 257 nM
[36]
  IC50: 298 nM
[37]
  IC50: 600 nM
[38]
  IC50: > 2000 nM
[39]
  IC50: 456 nM
[40]
  IC50: 27.2 nM
[41]
  IC50: 146 nM
[42]
  IC50: 70.2 nM
[43]
  IC50: < 7.81 nM
[44]
  IC50: 603 nM
[45]
  IC50: 356 nM
[46]
  IC50: > 2000 nM
[47]
  IC50: 183 nM
[48]
  IC50: 411 nM
[49]
  IC50: 363 nM
[50]
  IC50: > 2000 nM
[51]
  IC50: 136 nM
[52]
  IC50: > 2000 nM
[53]
  IC50: 94.1 nM
[54]
  IC50: 123 nM
[55]
  IC50: 917 nM
[56]
  IC50: 60.6 nM
[57]
  IC50: > 2000 nM
[58]
  IC50: 1100 nM
[59]
  IC50: 394 nM
[60]
  IC50: 154 nM
[61]
  IC50: 23.9 nM
[62]
  IC50: 82.7 nM
[63]
  IC50: 967 nM
[64]
  IC50: 1480 nM
[65]
  IC50: 609 nM
[66]
  IC50: 532 nM
